From patent publication US20140288052A1, “SUBSTITUTED BICYCLIC AZA-HETEROCYCLES AND ANALOGUES AS SIRTUIN MODULATORS” (GlaxoSmithKline, LLC, priority 2011, published 2014)

Tests used:
[1] = biological target: T1, SIRT1 (Homo sapiens, UniProt Q96EB6); experiment: Trp mass spectrometry assay of SIRT1 deacetylase activation; type: biochemical; conditions: Trp peptide substrate; for TRP EC1.5 (μM): concentration that results in 150% activation of SIRT1; for TRP % Fold Act: percent maximum fold activation relative to control (100%)
T1 sequence (Q96EB6 1-747): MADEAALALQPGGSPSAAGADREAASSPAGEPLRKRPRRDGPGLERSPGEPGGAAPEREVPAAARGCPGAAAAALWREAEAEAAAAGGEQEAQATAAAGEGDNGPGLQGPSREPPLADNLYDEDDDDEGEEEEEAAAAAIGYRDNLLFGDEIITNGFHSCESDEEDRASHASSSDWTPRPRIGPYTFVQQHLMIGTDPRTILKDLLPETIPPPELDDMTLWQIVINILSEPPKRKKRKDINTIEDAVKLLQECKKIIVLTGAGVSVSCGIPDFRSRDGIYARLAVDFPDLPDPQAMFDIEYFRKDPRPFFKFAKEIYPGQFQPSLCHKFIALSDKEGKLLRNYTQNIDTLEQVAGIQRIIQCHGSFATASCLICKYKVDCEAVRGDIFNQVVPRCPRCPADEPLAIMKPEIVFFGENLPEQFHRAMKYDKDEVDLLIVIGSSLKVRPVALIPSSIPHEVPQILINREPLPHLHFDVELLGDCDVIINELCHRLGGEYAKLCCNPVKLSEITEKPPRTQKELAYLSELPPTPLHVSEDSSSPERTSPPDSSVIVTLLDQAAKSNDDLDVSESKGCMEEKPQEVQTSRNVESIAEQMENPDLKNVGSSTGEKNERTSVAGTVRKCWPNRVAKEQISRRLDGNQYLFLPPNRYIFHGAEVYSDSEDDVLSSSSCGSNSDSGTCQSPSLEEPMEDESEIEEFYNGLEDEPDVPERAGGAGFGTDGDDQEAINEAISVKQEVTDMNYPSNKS
From the text: (§1) Mass spectrometry based assays were used to identify modulators of SIRT1 activity. The TAMRA based assay utilized a peptide having 20 amino acid residues as follows: Ac-EE-K(biotin)-GQSTSSHSK(Ac)NleSTEG-K(5TMR)-EE-NH2 (SEQ ID NO: 1), wherein K(Ac) is an acetylated lysine residue and Nle is a norleucine. The peptide was labeled with the fluorophore 5TMR (excitation 540 nm/emission 580 nm) at the C-terminus. The sequence of the peptide substrate was based on p53 with several modifications. In addition, the methionine residue naturally present in the sequence was replaced with the norleucine because the methionine may be susceptible to oxidation during synthesis and purification. The Trp based assay utilized a peptide having an amino acid residues as follows: Ac-R-H-K-K(Ac)-W-NH2 (SEQ ID NO: 2).
The Trp mass spectrometry assay was conducted as follows. 0.5 μM peptide substrate and 120 μM βNAD^+ were incubated with 10 nM SIRT1 for 25 minutes at 25° C. in a reaction buffer (50 mM HEPES pH 7.5, […], 1 mM DTT, 0.05% BSA). The SIRT1 protein was obtained by cloning the SirT1 gene into a T7-promoter containing vector, which was then expressed in BL21(DE3) bacterial cells and purified as described in further detail below. Test compound was added at varying concentrations to this reaction mixture and the resulting reactions were monitored. After the 25 minute incubation with SIRT1, 10 μL of 10% formic acid was added to stop the reaction. The resulting reactions were sealed and frozen for later mass spec analysis. The relative SIRT1 activity was then determined by measuring the amount of O-acetyl-ADP-ribose (OAADPR) formed (or, alternatively, the amount of deacetylated Trp peptide generated) by the NAD-dependent sirtuin deacetylation reaction in the presence of varying concentrations of the test compound versus control reactions lacking the test compound. The degree to which the test agent activated deacetylation by SIRT1 was expressed as EC1.5 (i.e., the concentration of compound required to increase SIRT1 activity by 50% over the control lacking test compound), and Percent Maximum Activation (i.e., the maximum activity relative to control (100%) obtained for the test compound).
(§2) A control for inhibition of sirtuin activity was conducted by adding 1 μL of 500 mM nicotinamide as a negative control at the start of the reaction (e.g., permits determination of maximum sirtuin inhibition). A control for activation of sirtuin activity was conducted using 10 nM of sirtuin protein, with 1 μL of DMSO in place of compound, to determine the amount of deacetylation of the substrate at a given time point within the linear range of the assay. This time point was the same as that used for test compounds and, within the linear range, the endpoint represents a change in velocity. For the above assay, SIRT1 protein was expressed and purified as follows. The SirT1 gene was cloned into a T7-promoter containing vector and transformed into BL21(DE3). The protein was expressed by induction with 1 mM IPTG as an N-terminal His-tag fusion protein at 18° C. overnight and harvested at 30,000×g. Cells were lysed with lysozyme in lysis buffer (50 mM Tris-HCl, 2 mM Tris[2-carboxyethyl] phosphine (TCEP), 10 μM ZnCl2, 200 mM NaCl) and further treated with sonication for 10 min for complete lysis. The protein was purified over a Ni-NTA column (Amersham) and fractions containing pure protein were pooled, concentrated and run over a sizing column (Sephadex S200 26/60 global). The peak containing soluble protein was collected and run on an Ion-exchange column (MonoQ). Gradient elution (200 mM-500 mM NaCl) yielded pure protein. This protein was concentrated and dialyzed against dialysis buffer (20 mM Tris-HCl, 2 mM TCEP) overnight. The protein was aliquoted and frozen at −80° C. until further use.
Sirtuin-modulating compounds of Formula (I) that activated SIRT1 were identified using the assay described above and are shown below in Table 1. […]

[2] = biological target: T1, SIRT1; experiment: TAMRA based mass spectrometry assay of SIRT1 deacetylase activation; type: biochemical; conditions: TAMRA peptide substrate; for TAMRA EC1.5 (μM): concentration that results in 150% activation of SIRT1; for TAMRA % Fold Act: percent maximum fold activation relative to control (100%)
From the text: as §1
The TAMRA based mass spectrometry assay was conducted as follows: 0.5 μM peptide substrate and 120 μM βNAD^+ was incubated with 10 nM SIRT1 for 25 minutes at 25° C. in a reaction buffer (50 mM Tris-acetate pH 8, 137 mM NaCl, 2.7 mM KCl, 1 mM MgCl2, 5 mM DTT, 0.05% BSA). The SIRT1 protein was obtained by cloning the SirT1 gene into a T7-promoter containing vector, which was then transformed and expressed in BL21(DE3) bacterial cells. Test compound was added at varying concentrations to this reaction mixture and the resulting reactions were monitored. After the 25 minute incubation with SIRT1, 10 μL of 10% formic acid was added to stop the reaction. The resulting reactions were sealed and frozen for later mass spec analysis. Determination of the amount of deacetylated substrate peptide formed (or, alternatively, the amount of O-acetyl-ADP-ribose (OAADPR) generated) by the sirtuin-mediated NAD-dependent deacetylation reaction allowed for the precise measurement of relative SIRT1 activity in the presence of varying concentrations of the test compound versus control reactions lacking the test compound.
as §2
Sirtuin-modulating compounds of Formula (I) that activated SIRT1 were identified using the assay described above and are shown below in Table 1. The EC1.5 values represent the concentration of test compounds that result in 150% activation of SIRT1. The EC1.5 values for the activating compounds of Formula (I) are represented by A (EC1.5<1 μM), B (EC1.5 1−25 μM), C (EC1.5>25 μM). […]

| SMILES | TRP EC1.5 (μM) [1] | TRP % Fold Act [1] | TAMRA EC1.5 (μM) [2] | TAMRA % Fold Act [2] |
| --- | --- | --- | --- | --- |
| Cc1cnc(NC(=O)c2cc(N3CCOCC3)nn3cc(-c4ccccc4F)nc23)s1 [Compound 38] | C (EC1.5>25 μM) | B (Fold Activation<350%) | – | – |
| O=C(Nc1cccnc1)c1cc(N2CCOCC2)nn2cc(-c3ccccc3Cl)nc12 [Compound 52] | – | – | C (EC1.5>25 μM) | B (Fold Activation<350%) |
| O=C(Nc1ccnc(N2CCOCC2)c1)c1ccnn2cc(-c3ccccc3F)nc12 [Compound 7] | – | – | C (EC1.5>25 μM) | B (Fold Activation<350%) |
| Cc1cnc(NC(=O)c2cc(N3CCOCC3)nn3cc(-c4cccc(Cl)c4)nc23)s1 [Compound 31] | – | – | C (EC1.5>25 μM) | B (Fold Activation<350%) |
| Cc1nc(C(=O)Nc2ccnc3cc(-c4cccc(C(F)(F)F)c4)nn23)cs1 [Compound 67] | C (EC1.5>25 μM) | B (Fold Activation<350%) | – | – |
| O=C(Nc1ccnc2cc(-c3cccc(C(F)(F)F)c3)nn12)c1cnccn1 [Compound 72] | C (EC1.5>25 μM) | B (Fold Activation<350%) | – | – |
| O=C(Nc1cccc(N2CCOCC2)n1)c1ccnn2cc(-c3cccc(C(F)(F)F)c3)nc12 [Compound 20] | – | – | A (EC1.5<1 μM) | B (Fold Activation<350%) |
| Cc1cnc(C(=O)Nc2ccnc3cc(-c4cccc(C(F)(F)F)c4)nn23)s1 [Compound 69] | C (EC1.5>25 μM) | B (Fold Activation<350%) | – | – |
| O=C(Nc1nccs1)c1cc(N2CCOCC2)nn2cc(-c3ccccc3Cl)nc12 [Compound 34] | B (EC1.5 1−25 μM) | B (Fold Activation<350%) | – | – |
| Cc1nc(C(=O)Nc2ccnc3cc(-c4cccc(C(F)(F)F)c4)nn23)c(C)s1 [Compound 68] | C (EC1.5>25 μM) | B (Fold Activation<350%) | – | – |
| O=C(Nc1ccnc(N2CCOCC2)c1)c1ccnn2cc(-c3ccccc3C(F)(F)F)nc12 [Compound 15] | – | – | A (EC1.5<1 μM) | A (Fold activation≧350%) |
| O=C(Nc1ccncc1)c1cc(N2CCOCC2)nn2cc(-c3ccccc3Cl)nc12 [Compound 53] | – | – | C (EC1.5>25 μM) | B (Fold Activation<350%) |
| O=C(Nc1ccnc(N2CCOCC2)c1)c1ccnn2cc(-c3ccccc3Cl)nc12 [Compound 9] | – | – | B (EC1.5 1−25 μM) | B (Fold Activation<350%) |
